Converted amounts (≈) assume the structure as drawn. Like-named read-outs stand apart in the source and are kept apart here.

The subject of experiment [1] is Spleen cells (proliferative response of lymphocytes to allogenic stimulation). The experiment is described as follows: Two-way MLR (Murine Mixed Lymphocyte Reaction). The class given is cell-based, mouse (Balb/c, CBA). Particulars: Table 5. On the procedure: 1. Proliferative Response Of Lymphocytes to Allogenic Stimulation
Two-way MLR (Murine Mixed Lymphocyte Reaction)
Spleen cells (0.5×106) from Balb/c mice (female, 8-10 weeks) are co-incubated for 5 .sctn.days with 0.5×10^6 spleen cells from CBA mice (female, 8-10 weeks). The allogenic cells induce a proliferative response in the responder spleen cell population which is measured by labelled precursor incorporation into the DNA. Test compounds are added at the start of incubation at varying concentrations and proliferative response compared with untreated controls.
(§1) Fractions are dissolved in ethanol and tested in the Mishell-Dutton assay (primary humoral immune-response to SRBC in vitro, MD) a mixed lymphocyte reaction (MLR) and on the P-815 mastocytoma cell line for cytotoxicity.

A further experiment deals with Jurkat cells. The experiment is described as follows: Cytotoxic and cytostatic activity using transformed human T-cell line (Jurkat). The class given is cell-based. Particulars: Table 5. As for the experimental part:
2. Cytotoxic and cytostatic activity using a transformed human T-cell line (Jurkat)
5×10^4 Jurkat cells are grown in a final volume of 0.2 ml for 72 hours after which the cell numbers are enumerated by use of an enzymatic assay using p-nitrophenyl-N-acetyl-β-D-glucosamindle as substrate. Test compounds are added at varying concentration at the start of culture and cytotoxicity compared with untreated controls.

Another experiment concerns P-815 mastocytoma cells. Briefly: Cytotoxic and cytostatic activity in vitro using the P-815 mastocytoma cell line. The class given is cell-based. Particulars: Table 5. On the procedure:
as §1

Experiment [2] has as its system GvH reaction (popliteal lymph node weight). Briefly: Localised Graft-versus-Host (GvH) Reaction in the rat. It counts as in vivo. Particulars: up to about 100× more active than corresponding 17β-epimers. On the procedure:
4. Localised Graft-versus-Host (GvH) Reaction in the rat
Spleen cells (1×10^7) from 6 week old female Wistar/Furth (WE) rats are injected subcutaneously on day 0 into the left hind-paw of female (F344×WF)F1 rats weighing about 100 g. Animals are treated for 4 consecutive days and the popliteal lymph nodes are removed and weighed on day 7. The difference in weight between the two lymph nodes is taken as the parameter for evaluating the reaction. Test compounds are administered daily for 4 days at varying dosage p.o. and inhibition compared with untreated controls. Dammara compounds are active (inhibit GvH reaction) in this test model at doses of the order of from 10 μg to 10 mg/kg/day p.o..

The test system of experiment [3] is DTH reaction (footpad swelling). The experiment is described as follows: DTH (delayed-type hypersensitivity) induced by SRBC-TH cells. To be noted: Mus musculus, po, 24 h, read-out: TEST 9 (DTH) ED50. It counts as in vivo, mouse (C57 BL/6). On the procedure:
50 μl of the SRBC cell suspension (diluted 1:1 v/v with PBS) is injected s.c. into the left hind footpad (to measure non specific increase in footpad swelling due to the injection procedure). Right and left hind footpad thickness is measured 24 hours later.

The subject of experiment [4] is systemic lupus erythematosus (disease onset). The experiment is described as follows: Systemic lupus erythematosus (SLE) in the mouse (NZB/NZW). It counts as in vivo, mouse (NZB/NZW F1). To be noted: po, read-out: TEST 10 (SLE) ED100. On the procedure:
10. Systemic lupus erythematosus (SLE) in the mouse (NZB/NZW)
Female New Zealand black/white (NZB/NZW) F1 mice spontaneously develop characteristics that resemble systemic lupus erythematosus. […] Treatment starts at 24 weeks of age when animals show proteinurea. Compounds are administered p.o. 3 times a week for a total of 12 weeks. Status is determined every second week and animals are sent for histological evaluation at termination of the experiment Ten mice are used per group.

On to `COc1cc([C@@H]2c3cc4c(cc3C[C@H]3COC(=O)[C@@H]32)OCO4)cc(OC)c1OC` [Silicicolin, reference compound], for which the “IC50 MLR” value in experiment [1] worked out at 0.002 µg/mL (≈ 5.02 nM). Further, the “IC50 Jurkat” value with Jurkat cells is 0.0025 µg/mL (≈ 6.27 nM). The “IC50 P-815” value with P-815 mastocytoma cells amounted to 0.004 µg/mL (≈ 10 nM).
Consider `C=C(C/C=C/C(C)(C)O)[C@@H]1CC[C@]2(C)[C@@H]1CC[C@@H]1[C@@]3(C)CC[C@H](O)C(C)(C)[C@@H]3CC[C@]12C` [compound of formula IC, (17α)-23-(E)-dammara-20,23-diene-3β,25-diol], for which the half-inhibitory concentration (IC50) in experiment [1] (Mus musculus, Lymphocyte) was 0.0105 µg/mL; in the experiment with Jurkat cells (Homo sapiens, Jurkat), greater than 5 µg/mL; in the experiment on P-815 mastocytoma cells (Mus musculus, P815), greater than 5 µg/mL. Besides, the “IC50 MLR” value in experiment [1] turned out to be 0.011 µg/mL. The “activity relative to corresponding 17β-epimers” value in experiment [2] is listed as “up to 100 ×”. The ED50 in experiment [3] (one trial run) was found to be 0.004 mg/kg. In addition, the ED100 in experiment [4] (one trial run) worked out at 0.01 mg/kg.
As to `C=C(C/C=C/C(C)(C)O)[C@H]1CC[C@]2(C)[C@@H]1CC[C@@H]1[C@@]3(C)CC[C@H](O)C(C)(C)[C@@H]3CC[C@]12C` [β-EPIMER OF IC, (17β)-23-(E)-dammara-20,23-dien-3β,25-diol], in experiment [3], the median effective dose (ED50) was 10 mg/kg. Besides, the ED100 in experiment [4] was found to be 10 mg/kg.

Broadly, the IC50 is the point on the concentration scale where inhibition reaches its midpoint. A higher IC50 goes with weaker potency. Usually ED50 stands for the midpoint of the dose-response relation.

The values are drawn from patent publication US5852005A, “Tetracyclic triterpenes” (Novartis AG, priority 1994, dated 1998).
